What all share (test): relative viability (nuclei count vs DMSO), 5 days (fraction); higher = more cells survive
Compound in the test “QS11 + Crizotinib”: C1CC2=C(C1)C=C(C=C2)OC3=NC(=C4C(=N3)N(C=N4)CC5=CC=C(C=C5)C6=CC=CC=C6)N[C@@H](CC7=CC=CC=C7)CO [QS11] + C[C@@H](Oc1cc(-c2cnn(C3CCNCC3)c2)cnc1N)c1c(Cl)ccc(F)c1Cl [Crizotinib] (partner 1 µM)
The method in brief:
(§1)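 One day after seeding in 1536-well plates, lung cancer cell lines were dosed by pin tool. Dosing was either single-drug or a fixed anchor-drug dose plus five library-drug doses (not always all listed) in √10 steps. After 5 days, nuclei were stained in one fix-and-stain step and counted on 4× images, and relative viability is the nuclei count of treated wells over that of vehicle wells, given as the median of duplicate plates.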

Compound in the test “AZ628 + Foretinib”: CC1=C(C=C(C=C1)NC(=O)C2=CC(=CC=C2)C(C)(C)C#N)NC3=CC4=C(C=C3)N=CN(C4=O)C [AZ628] + COc1cc2c(Oc3ccc(NC(=O)C4(C(=O)Nc5ccc(F)cc5)CC4)cc3F)ccnc2cc1OCCCN1CCOCC1 [Foretinib] (partner 0.25 µM)
In outline: as §1

Compound in the test “AZ628 + Alpelisib”: CC1=C(C=C(C=C1)NC(=O)C2=CC(=CC=C2)C(C)(C)C#N)NC3=CC4=C(C=C3)N=CN(C4=O)C [AZ628] + Cc1nc(NC(=O)N2CCC[C@H]2C(N)=O)sc1-c1ccnc(C(C)(C)C(F)(F)F)c1 [Alpelisib] (partner 2 µM)
In outline: as §1

Compound in the test “AZ628 + Decitabine”: CC1=C(C=C(C=C1)NC(=O)C2=CC(=CC=C2)C(C)(C)C#N)NC3=CC4=C(C=C3)N=CN(C4=O)C [AZ628] + Nc1ncn([C@H]2C[C@H](O)[C@@H](CO)O2)c(=O)n1 [Decitabine] (partner 2 µM)
In outline:
as §1

For the cell line LCLC-97TM1, the relative viability stood at 0.275 with QS11 + Crizotinib (first compound 0.08 µM); 0.351 with QS11 + Crizotinib (first compound 0.253 µM); 0.392 with QS11 + Crizotinib (first compound 0.8 µM); 0.403 with QS11 + Crizotinib (first compound 2.53 µM); 0.355 in the test with QS11 + Crizotinib (first compound 8 µM); 0.95 with AZ628 + Foretinib (first compound 0.08 µM). In addition, the relative viability came out at 0.867 with AZ628 + Foretinib (first compound 0.253 µM); 0.805 with AZ628 + Foretinib (first compound 0.8 µM); 0.682 with AZ628 + Foretinib (first compound 2.53 µM); 0.301 in the test with AZ628 + Foretinib (first compound 8 µM); 0.279 with AZ628 + Alpelisib (first compound 0.08 µM); 0.205 with AZ628 + Alpelisib (first compound 0.253 µM). For the same cell line, the relative viability with AZ628 + Alpelisib (first compound 0.8 µM) is 0.195; with AZ628 + Alpelisib (first compound 2.53 µM) it was 0.232; in the test with AZ628 + Alpelisib (first compound 8 µM), 0.118; in the test with AZ628 + Decitabine (first compound 0.08 µM) it was 0.276; with AZ628 + Decitabine (first compound 0.253 µM), 0.265; with AZ628 + Decitabine (first compound 0.8 µM) it was 0.257. Besides, the relative viability worked out at 0.199 with AZ628 + Decitabine (first compound 2.53 µM) and 0.13 with AZ628 + Decitabine (first compound 8 µM).

Values taken from the supplement of paper PMC10307832.
